In ChEMBL document CHEMBL1137449, “A refined agonist pharmacophore for protease activated receptor 2” (Bioorg Med Chem Lett, 2007):
pEC50: −log10 of the molar value. Calls of active or inactive are those of the source. The calls are words filed in the database; no cut-off is given here. Square brackets hold non-standard residues; d marks the D form. Peptide text beside a SMILES is read from it. Phe(4-NO2) = N[C@@H](Cc1ccc([N+](=O)[O-])cc1)C(=O)O

Key:
[1] = target: T1, Proteinase-activated receptor 2 (Homo sapiens, UniProt P55085); test: Agonist activity at PAR2 expressed in human HT29 cells assessed as intracellular calcium release; assay type: functional, cell-based, HT-29
T1 sequence (P55085 whole entry): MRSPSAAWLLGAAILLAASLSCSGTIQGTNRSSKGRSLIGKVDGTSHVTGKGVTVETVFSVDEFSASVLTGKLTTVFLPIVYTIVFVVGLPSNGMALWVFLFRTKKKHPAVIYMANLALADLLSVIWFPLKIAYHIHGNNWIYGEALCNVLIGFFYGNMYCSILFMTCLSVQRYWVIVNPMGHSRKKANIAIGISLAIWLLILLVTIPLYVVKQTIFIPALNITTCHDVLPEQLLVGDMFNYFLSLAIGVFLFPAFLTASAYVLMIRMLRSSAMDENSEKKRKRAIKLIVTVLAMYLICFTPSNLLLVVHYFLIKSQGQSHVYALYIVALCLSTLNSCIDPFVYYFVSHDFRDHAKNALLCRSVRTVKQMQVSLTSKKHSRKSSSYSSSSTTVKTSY

[2] = target: Proteinase-activated receptor 2 (Homo sapiens) (UniProt P55085); test: Agonist activity at PAR2 expressed in 2-furoyl-LIGRLI-NH2 treated human HT29 cells assessed as intracellular calcium response; assay type: functional, cell-based; conditions: HT-29

pEC50 [1]: 6.40
Activity [2]: inactive
Compound: CC[C@H](C)[C@H](NC(=O)[C@H](Cc1ccc([N+](=O)[O-])cc1)NC(=O)[C@H](CCCNC(=N)N)NC(=O)CNC(=O)[C@@H](NC(=O)[C@H](CC(C)C)NC(=O)[C@@H](N)CO)[C@@H](C)CC)C(N)=O (H-SLIGR[Phe(4-NO2)]I-NH2)
